Test results taken from ChEMBL document CHEMBL1201862, “PubChem BioAssay data set” (2004).
Active and inactive are the calls of the source.

What was measured:
Prothrombin = Prothrombin (Homo sapiens, UniProt P00734); experiment: Thrombin 1536 HTS Dose Response Confirmation. [Related pubchem assays: 1046 (Thrombin 1536 HTS; hits were confirmed in this assay)]; type: functional
Ion channel NompC = Ion channel NompC (Danio rerio, UniProt Q7T1G6); experiment: Fluorescence counterscreen assay for TRPML3 agonists: dose response cell-based high-throughput screening assay to identify agonists of the transient receptor potential channel N1 (TRPN1). [Related pubchem assays: 1526, 1424, 1448 ]; type: functional
Mucolipin-3 = molecular target: T1, Mucolipin-3 (Homo sapiens, UniProt Q8TDD5); experiment: Dose response cell-based high-throughput screening assay for agonists of the transient receptor potential channel ML3 (TRPML3). [Related pubchem assays: 1526, 1424, 1448 ]; type: functional
T1 sequence (Q8TDD5 whole entry): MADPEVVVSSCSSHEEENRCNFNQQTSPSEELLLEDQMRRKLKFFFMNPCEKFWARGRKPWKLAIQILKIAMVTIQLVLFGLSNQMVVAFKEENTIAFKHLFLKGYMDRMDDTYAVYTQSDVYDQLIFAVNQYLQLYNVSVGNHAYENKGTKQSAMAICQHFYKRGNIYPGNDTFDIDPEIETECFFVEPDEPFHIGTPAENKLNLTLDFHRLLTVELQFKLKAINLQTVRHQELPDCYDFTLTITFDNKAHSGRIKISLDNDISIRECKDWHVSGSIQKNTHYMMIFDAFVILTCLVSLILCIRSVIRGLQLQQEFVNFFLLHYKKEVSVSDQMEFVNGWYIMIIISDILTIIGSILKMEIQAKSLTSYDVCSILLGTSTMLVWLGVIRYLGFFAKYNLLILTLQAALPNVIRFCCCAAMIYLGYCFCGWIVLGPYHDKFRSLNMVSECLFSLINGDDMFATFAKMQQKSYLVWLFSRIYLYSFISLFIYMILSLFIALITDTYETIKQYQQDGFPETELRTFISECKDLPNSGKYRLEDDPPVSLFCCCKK

[1] = viability inhibitors of stage V gametocytes – luminescence, dose response (AID 1117278); type: functional, cell-based;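 note: gametocytes exposed to compound for 24 hours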
[2] = viability loss in human Jurkat cells – cell-based, luminescence, cytotoxicity control for P. falciparum gametocyte viability project, dose response (AID 1117277); type: functional;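 note: potency reflects loss of cellular ATP meaning fewer viable cells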
[3] = viability loss of HPDE-C7K cells – cell-based, fluorescence, HTS, primary screen (AID 431); type: functional; details: Homo sapiens
[4] = HPDE-C7 pancreatic duct cell viability loss – fluorescence, HTS (AID 430); type: functional, cell-based; details: Homo sapiens
NADPH oxidase 1 = molecular target: T2, NADPH oxidase 1 (Homo sapiens, UniProt Q9Y5S8); type: functional, cell-based;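 note: Cell-based assay with luminescence read-out, IC50 derived from inhibitor dose-response curves; intracellular ROS from endogenous NOX1 in intact HT29 colon cancer cells; potency of inhibitors that lower the ROS luminescence signal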
T2 sequence (Q9Y5S8 whole entry): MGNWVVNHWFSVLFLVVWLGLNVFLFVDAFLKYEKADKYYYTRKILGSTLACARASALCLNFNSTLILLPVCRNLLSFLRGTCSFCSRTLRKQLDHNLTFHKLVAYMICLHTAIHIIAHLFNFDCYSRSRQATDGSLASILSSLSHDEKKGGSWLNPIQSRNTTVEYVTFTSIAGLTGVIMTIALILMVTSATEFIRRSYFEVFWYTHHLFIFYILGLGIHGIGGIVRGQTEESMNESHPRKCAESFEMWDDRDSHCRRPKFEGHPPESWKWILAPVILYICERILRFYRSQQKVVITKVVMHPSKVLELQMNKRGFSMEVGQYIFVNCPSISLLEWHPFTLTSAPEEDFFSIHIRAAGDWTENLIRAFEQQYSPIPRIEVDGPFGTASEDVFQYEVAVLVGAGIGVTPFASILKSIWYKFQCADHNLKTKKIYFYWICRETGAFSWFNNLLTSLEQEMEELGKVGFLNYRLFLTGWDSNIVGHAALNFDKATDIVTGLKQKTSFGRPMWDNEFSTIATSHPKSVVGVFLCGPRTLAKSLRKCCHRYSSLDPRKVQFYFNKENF

Genome polyprotein = molecular target: T3, Genome polyprotein (Hepatitis C virus, UniProt Q2Q167); experiment: disruption of hepatitis C core self-association – biochemical, TR-FRET, dose response (AID 2159); design: species or system Hepacivirus hominis;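 note: blocks dimerization of HCV core protein measured by TR-FRET between tagged core106 pairs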
T3 sequence (Q2Q167 whole entry): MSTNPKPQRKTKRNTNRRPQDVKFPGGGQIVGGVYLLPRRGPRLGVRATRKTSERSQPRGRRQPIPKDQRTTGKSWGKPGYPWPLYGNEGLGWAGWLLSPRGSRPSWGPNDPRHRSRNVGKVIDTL

[5] = molecular target: T4, Histone-lysine N-methyltransferase NSD2 (Homo sapiens, UniProt O96028); type: biochemical
T4 sequence (O96028 whole entry): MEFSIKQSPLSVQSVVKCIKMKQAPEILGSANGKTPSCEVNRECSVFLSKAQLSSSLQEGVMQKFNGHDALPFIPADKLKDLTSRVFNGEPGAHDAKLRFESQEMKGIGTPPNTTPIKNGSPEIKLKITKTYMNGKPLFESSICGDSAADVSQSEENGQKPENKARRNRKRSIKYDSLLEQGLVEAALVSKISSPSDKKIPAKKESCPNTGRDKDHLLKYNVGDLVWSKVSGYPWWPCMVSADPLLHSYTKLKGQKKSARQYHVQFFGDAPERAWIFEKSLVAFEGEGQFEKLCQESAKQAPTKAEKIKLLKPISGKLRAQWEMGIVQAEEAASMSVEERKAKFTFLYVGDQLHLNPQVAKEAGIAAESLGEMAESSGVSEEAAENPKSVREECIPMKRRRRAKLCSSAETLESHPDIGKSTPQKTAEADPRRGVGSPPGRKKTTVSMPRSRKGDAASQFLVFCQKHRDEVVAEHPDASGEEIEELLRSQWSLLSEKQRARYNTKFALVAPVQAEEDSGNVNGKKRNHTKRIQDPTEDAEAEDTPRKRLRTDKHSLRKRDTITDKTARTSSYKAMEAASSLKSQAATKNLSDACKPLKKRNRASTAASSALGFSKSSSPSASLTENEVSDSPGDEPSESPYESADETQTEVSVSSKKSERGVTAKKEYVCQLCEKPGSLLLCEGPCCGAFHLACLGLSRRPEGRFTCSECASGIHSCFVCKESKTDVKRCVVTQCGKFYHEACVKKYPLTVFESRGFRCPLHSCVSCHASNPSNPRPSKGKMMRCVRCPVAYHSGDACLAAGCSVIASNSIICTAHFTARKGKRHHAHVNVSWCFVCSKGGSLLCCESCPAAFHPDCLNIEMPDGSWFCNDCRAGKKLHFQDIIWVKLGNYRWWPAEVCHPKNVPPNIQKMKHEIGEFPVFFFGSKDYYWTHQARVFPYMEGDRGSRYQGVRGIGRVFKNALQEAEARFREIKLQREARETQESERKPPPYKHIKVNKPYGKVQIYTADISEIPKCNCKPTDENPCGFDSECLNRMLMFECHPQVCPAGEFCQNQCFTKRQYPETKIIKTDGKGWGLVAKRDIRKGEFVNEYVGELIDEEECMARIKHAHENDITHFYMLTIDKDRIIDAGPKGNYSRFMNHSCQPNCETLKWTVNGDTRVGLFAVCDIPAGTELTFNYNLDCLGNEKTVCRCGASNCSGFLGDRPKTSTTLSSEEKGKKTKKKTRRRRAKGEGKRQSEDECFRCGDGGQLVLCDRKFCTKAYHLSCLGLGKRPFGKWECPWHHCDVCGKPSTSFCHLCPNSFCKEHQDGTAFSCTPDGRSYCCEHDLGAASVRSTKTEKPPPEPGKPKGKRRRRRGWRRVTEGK

[6] = molecular target: T5, Tyrosyl-DNA phosphodiesterase 2 (Homo sapiens, UniProt O95551); experiment: potency against TDP2 phosphodiesterase activity – biochemical, epi absorbance, IC50, dose response (AID 743297)
T5 sequence (O95551 whole entry): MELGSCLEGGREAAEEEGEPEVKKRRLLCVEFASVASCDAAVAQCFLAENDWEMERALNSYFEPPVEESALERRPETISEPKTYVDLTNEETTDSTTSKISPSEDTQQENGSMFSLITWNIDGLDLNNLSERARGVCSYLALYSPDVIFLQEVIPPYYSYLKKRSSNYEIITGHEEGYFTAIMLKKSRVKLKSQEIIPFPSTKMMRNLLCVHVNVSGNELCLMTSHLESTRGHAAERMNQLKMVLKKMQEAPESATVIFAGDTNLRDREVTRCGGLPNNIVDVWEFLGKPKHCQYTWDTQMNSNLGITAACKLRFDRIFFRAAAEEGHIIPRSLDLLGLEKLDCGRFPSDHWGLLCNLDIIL

Caspase-6 = molecular target: T6, Caspase-6 (Homo sapiens, UniProt P55212); experiment: inhibition of CASP6 peptide cleavage – biochemical, VEID-R110 fluorescence, cherry-pick, dose response (AID 720632)
T6 sequence (P55212 whole entry): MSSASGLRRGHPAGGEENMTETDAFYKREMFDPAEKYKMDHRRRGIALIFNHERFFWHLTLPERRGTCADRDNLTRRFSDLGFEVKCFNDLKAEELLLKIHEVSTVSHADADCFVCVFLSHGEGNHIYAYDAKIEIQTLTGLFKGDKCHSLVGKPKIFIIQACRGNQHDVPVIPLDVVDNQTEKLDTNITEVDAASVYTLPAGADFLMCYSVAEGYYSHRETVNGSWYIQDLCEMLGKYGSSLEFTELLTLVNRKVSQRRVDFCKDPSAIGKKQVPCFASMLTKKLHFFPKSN

[7] = rise of 4N DNA cells, HeLa – IC50, dose response (AID 1117351); type: functional, cell-based
[8] = molecular target: Heat shock protein HSP 90-alpha (Homo sapiens, UniProt P07900); type: functional, organism-based
[9] = cytotoxicity toward HCT116 cells – cell-based, CellTiter-Glo luminescence, IC50, dose response (AID 1117332); type: functional; details: HCT-116
INS1 = experiment: INS-1E survival protection against cytokine death – cell-based, luminescence, retest, dose response (AID 449756); type: functional; details: Rattus norvegicus;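 note: cell death triggered by IL-1 beta plus TNF-alpha plus IFN-gamma mixture; protective hits raise ATP signal compared with cytokine alone wells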
[10] = CellTiter-Glo luminescence survival assay, SW480 colon tumor line, concentration-response curve, half-maximal inhibitory concentration (AID 1117338); type: functional
[11] = HCT116 cell viability decrease, GSK3B pretreatment – CellTiter-Glo, IC50, dose response (AID 1117339); type: functional; details: HCT-116
Cytochrome P450 1A2 = molecular target: T7, Cytochrome P450 1A2 (Homo sapiens, UniProt P05177);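 note: PubChem cytochrome P450 panel assay, CYP1A2 panel member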
T7 sequence (P05177 whole entry): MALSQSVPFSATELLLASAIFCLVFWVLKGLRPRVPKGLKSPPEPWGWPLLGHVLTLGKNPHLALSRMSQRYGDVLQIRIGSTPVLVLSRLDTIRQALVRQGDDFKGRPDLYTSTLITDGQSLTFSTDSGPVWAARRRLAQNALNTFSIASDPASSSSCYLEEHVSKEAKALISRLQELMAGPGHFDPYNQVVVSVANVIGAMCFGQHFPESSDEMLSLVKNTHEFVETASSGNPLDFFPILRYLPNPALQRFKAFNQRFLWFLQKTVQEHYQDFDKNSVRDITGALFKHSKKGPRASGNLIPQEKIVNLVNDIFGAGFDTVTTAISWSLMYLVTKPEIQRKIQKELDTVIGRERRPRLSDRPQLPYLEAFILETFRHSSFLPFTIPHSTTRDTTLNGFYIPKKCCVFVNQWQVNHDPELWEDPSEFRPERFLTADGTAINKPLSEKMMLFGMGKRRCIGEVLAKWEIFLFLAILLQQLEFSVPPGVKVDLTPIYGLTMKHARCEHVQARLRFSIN

[12] = cytotoxicity toward Colo320 cells – cell-based, CellTiter-Glo luminescence, IC50, dose response (AID 1117334); type: functional; details: COLO 320
[13] = Reduced DLD-1 viability, concentration-response, CellTiter-Glo luminescence (AID 1117352); type: functional
[14] = RKO cell viability reduction, dose response, CellTiter-Glo luminescence (AID 1117322); type: functional
[15] = SNU-C1 cell viability reduction, dose response, CellTiter-Glo luminescence (AID 1117323); type: functional, cell-based
[16] = rise of 2N DNA cells, HeLa – IC50, dose response (AID 1117349); type: functional, cell-based

Sequence of Ion channel NompC (Q7T1G6 whole entry): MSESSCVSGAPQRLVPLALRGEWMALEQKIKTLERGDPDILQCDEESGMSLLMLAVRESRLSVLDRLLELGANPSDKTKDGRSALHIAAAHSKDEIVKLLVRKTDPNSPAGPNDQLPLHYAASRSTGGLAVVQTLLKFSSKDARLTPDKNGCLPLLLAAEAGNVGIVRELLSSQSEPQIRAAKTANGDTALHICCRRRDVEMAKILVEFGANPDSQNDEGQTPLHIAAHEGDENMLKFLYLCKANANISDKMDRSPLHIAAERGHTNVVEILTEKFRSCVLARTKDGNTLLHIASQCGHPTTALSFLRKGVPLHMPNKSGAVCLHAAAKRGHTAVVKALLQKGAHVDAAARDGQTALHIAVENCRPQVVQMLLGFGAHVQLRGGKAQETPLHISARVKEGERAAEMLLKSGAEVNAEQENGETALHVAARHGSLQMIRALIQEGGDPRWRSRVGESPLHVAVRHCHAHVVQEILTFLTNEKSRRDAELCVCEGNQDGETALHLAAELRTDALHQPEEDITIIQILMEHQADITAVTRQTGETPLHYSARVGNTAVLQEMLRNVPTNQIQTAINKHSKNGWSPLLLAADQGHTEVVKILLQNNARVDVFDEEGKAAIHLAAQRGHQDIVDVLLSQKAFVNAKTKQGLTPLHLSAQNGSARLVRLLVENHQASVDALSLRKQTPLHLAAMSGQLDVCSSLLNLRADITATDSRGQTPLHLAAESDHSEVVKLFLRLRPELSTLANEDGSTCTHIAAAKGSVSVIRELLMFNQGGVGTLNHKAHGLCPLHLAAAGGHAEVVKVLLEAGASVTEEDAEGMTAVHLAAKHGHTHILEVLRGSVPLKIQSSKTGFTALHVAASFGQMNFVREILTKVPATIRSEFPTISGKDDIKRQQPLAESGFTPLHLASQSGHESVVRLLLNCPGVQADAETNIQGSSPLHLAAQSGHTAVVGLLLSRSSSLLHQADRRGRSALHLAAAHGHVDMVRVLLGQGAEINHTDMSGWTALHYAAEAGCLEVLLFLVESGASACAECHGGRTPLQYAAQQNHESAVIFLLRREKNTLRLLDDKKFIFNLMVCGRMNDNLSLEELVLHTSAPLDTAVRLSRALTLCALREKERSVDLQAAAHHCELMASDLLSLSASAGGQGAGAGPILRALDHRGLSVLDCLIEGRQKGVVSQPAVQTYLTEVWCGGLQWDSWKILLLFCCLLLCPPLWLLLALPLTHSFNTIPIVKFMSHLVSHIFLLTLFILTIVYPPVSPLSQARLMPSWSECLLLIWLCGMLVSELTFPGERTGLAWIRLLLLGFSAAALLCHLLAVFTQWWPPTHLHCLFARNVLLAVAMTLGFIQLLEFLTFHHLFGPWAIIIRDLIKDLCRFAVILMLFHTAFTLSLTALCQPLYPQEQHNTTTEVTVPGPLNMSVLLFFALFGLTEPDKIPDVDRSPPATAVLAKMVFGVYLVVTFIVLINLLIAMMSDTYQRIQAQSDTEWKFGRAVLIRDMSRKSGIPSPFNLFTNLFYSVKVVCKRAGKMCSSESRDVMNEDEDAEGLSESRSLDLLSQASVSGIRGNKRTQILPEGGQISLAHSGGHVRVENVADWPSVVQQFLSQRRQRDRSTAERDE

Cc1ccc2c(c1)CC1(CN2C)C(=O)OC(C)(C)OC1=O
IC50 (Prothrombin): 1.69 µM (active)

O=C(CC(Nc1ccc(F)cc1)C(=O)OCC(=O)c1cccs1)c1ccccc1 (configuration not stated)
IC50 (Prothrombin): 2.82 µM (active)

COc1ccc(S(=O)(=O)N(CC(=O)N2CCOCC2)c2cc(Cl)ccc2OC)cc1OC
EC50 (Ion channel NompC): > 29.9 µM (not active)
EC50 (Mucolipin-3): 4.75 µM (active)

Cc1ccccc1N1CCN(S(=O)(=O)c2ccccc2)CC1
EC50 (Ion channel NompC): > 29.9 µM (not active)
EC50 (Mucolipin-3): 5.11 µM (active)

O=C(c1ccco1)N1CCN(C(=O)C2c3ccccc3Oc3ccccc32)CC1
IC50 [1]: > 109 µM (inactive)
IC50 [2]: 64.4 µM (inactive)

CCCCOc1cccc(C(=O)Nc2ccc(N3CCN(CC)CC3)cc2)c1
EC50 [3]: > 20 µM (not active)
EC50 [4]: > 20 µM (not active)

Cc1cc(C)c(C2=NOC3C4CCC(C4)C23)c(C)c1 (configuration not stated)
EC50 (Ion channel NompC): > 29.9 µM (not active)
EC50 (Mucolipin-3): 1.77 µM (active)

CN(C1CCS(=O)(=O)C1)S(=O)(=O)c1ccccc1 (configuration not stated)
IC50 [1]: > 109 µM (inactive)
IC50 [2]: > 83.3 µM (inactive)

O=C(Oc1ccc(Cl)cc1)c1sc2ccccc2c1Cl
IC50 (NADPH oxidase 1): > 17 µM (not active)

COc1cccc(NC(=O)CN(C)C(=O)c2cc3c(s2)CCC3)c1
IC50 (Genome polyprotein): > 49.8 µM (not active)

O=C(/C=C/c1ccc(Br)o1)OCc1nc(O)c2sccc2n1
IC50 (Genome polyprotein): 18.2 µM (not active)

CC(=O)Nc1ccc(-c2nc(-c3ccccc3)c(-c3ccccc3)[nH]2)cc1
IC50 (NADPH oxidase 1): > 17 µM (not active)

COc1ccc(-c2nc(-c3ccc(OC)cc3)c(-c3ccc(OC)cc3)[nH]2)cc1
IC50 (NADPH oxidase 1): > 17 µM (not active)

O=C(CSc1nc2ncnc-2c(O)[nH]1)NC1CCCCC1
IC50 (Prothrombin): > 50 µM (not active)

COc1cc(N)c2ncccc2c1Br
AC50 [5]: 13.1 µM (active)
IC50 [6]: > 128 µM (inactive)
AC50 (Caspase-6): 10 µM (active)

Cc1ccc(CN2CCN(Cc3ccc(-n4cccn4)cc3)CC2CCO)cc1 (configuration not stated)
IC50 [1]: > 109 µM (inactive)
IC50 [2]: > 83.4 µM (inactive)

Cc1cc(C2CCCCC2)n(O)c(=O)c1 [CICLOPIROX OLAMINE]
IC50 [7]: > 10 µM (inactive)
AC50 [8]: < 0.195 µM (active)
IC50 [9]: 0.656 µM (active)
AC50 (INS1): 0.78 µM (active)
IC50 [10]: 0.469 µM (active)
IC50 [11]: 0.39 µM (active)
AC50 (Cytochrome P450 1A2): 15.8 µM (inconclusive)
IC50 [12]: 0.208 µM (active)
IC50 [13]: 0.316 µM (active)
IC50 [14]: 0.233 µM (active)
IC50 [15]: > 20 µM (inactive)
IC50 [16]: > 10 µM (inactive)
